For data set [1], the system named is SARS-CoV-2. The arrangement: method as in PMID 33290767, PMID 35456990, PMID 33671463. Conditions: Vero cells; read-out: IC50 against SARS-CoV-2; cited from earlier work.
A further data set deals with SARS-CoV-2 2′-O-MTase. More on the design: method as in PMID 33874769. The settings on record: control nucleoside-based methyltransferase inhibitor; read-out: 2′-O-MTase Inhibition IC50; cited from earlier work.
Data set [2] can be described thus: in vitro. Conditions: African green monkey.
The nature of data set [3]: in vitro.
In data set [4] the test system is SARS-CoV-2. The data set is described as follows: Anti-SARS-CoV-2 virus yield reduction assay (qRT-PCR) on Vero cells. Conditions: for Anti-SARS-CoV-2 Activity, % Inhibition at 10 µM: 0.1 MOI, virus yield reduction qRT-PCR; for EC50: read-out: Anti-SARS-CoV-2 Activity, EC50, antiviral dose–response, 2 days post-treatment. On the technique in general: In qPCR the cycle at which signal appears reflects the starting amount.

The target in data set [5] is SARS-CoV-2 2′-O-MTase (Nsp10–16) (Severe acute respiratory syndrome coronavirus 2, UniProt P0DTD1). Kind of data set: MTaseGlo coupled assay of Nsp10–16 RNA methyltransferase activity. It is filed as biochemical. The settings on record: 25 nM Nsp10–16, 300 nM Cap-0 RNA, 5 µM SAM, 15 min; read-out: 2′-O-MTase Inhibition IC50.
Setting [6] is: peripheral blood mononuclear (PBM) cells.

Read-outs that look alike come from different tables or passages of the source.

The values that follow come from publication PMC11547505 (Molecules, 2024).

As a reminder, the IC50 is the midpoint of a concentration-inhibition curve. One may read the EC50 as the concentration giving half of the maximal effect.

In the case of `C=C(C)[C@@H]1CCC(C)=C[C@H]1c1c(O)cc(CCCCC)cc1O` [CBD, cannabidiol], in the data set with SARS-CoV-2 [1], the IC50 is 7.9 µM.
On to `CCCCCc1cc(O)c2c(c1)OC(C)(C)[C@@H]1CCC(C)=C[C@@H]21` [Δ^9-THC, delta-9-tetrahydrocannabinol], for which, in the data set with SARS-CoV-2 [1], the IC50 was 10.3 µM.
As for `Nc1ncnc2c1ncn2[C@@H]1O[C@H](C[C@@H](N)CC[C@H](N)C(=O)O)[C@@H](O)[C@H]1O` [Sinefungin], at SARS-CoV-2 2′-O-MTase, the IC50 was 3.4 ± 0.4 µM.
Take `Cc1ccc2c(c1)-c1cc(C(=O)c3ccc(O)cc3O)c(O)cc1OC2(C)C` [CPM-2, (2,4-dihydroxyphenyl)(3-hydroxy-6,6,9-trimethyl-6H-benzo[c]chromen-2-yl)methanone]: the CC50 turned out to be 55.4 µM in “in vitro [2]” and 41.2 µM in the data set “in vitro [3]”. In addition, the “Anti-SARS-CoV-2 Activity, % Inhibition at 10 µM” value in the data set on SARS-CoV-2 [4] stood at 98.1%. In addition, the EC50 with SARS-CoV-2 [4] came out at 8.6 µM. In addition, in data set [5], the IC50 was found to be 6.7 ± 0.5 µM.
`Cc1ccc2c(c1)-c1c(ccc(C(=O)c3ccc(O)cc3O)c1O)OC2(C)C` [CPM-1, (2,4-dihydroxyphenyl)(1-hydroxy-6,6,9-trimethyl-6H-benzo[c]chromen-2-yl)methanone]: the CC50 in “in vitro [2]” and in “in vitro [3]” was above 100 µM throughout. Besides, the “Anti-SARS-CoV-2 Activity, % Inhibition at 10 µM” value with SARS-CoV-2 [4] is on record as 98.9%. In the data set with SARS-CoV-2 [4], the EC50 came to 7.65 µM. Also, the IC50 in data set [5] is 1.5 ± 0.2 µM.
As to `CC1=CC[C@@H]2[C@@H](C1)c1c(ccc(C(=O)c3ccc(O)cc3O)c1O)OC2(C)C` [TPM-1, (2,4-dihydroxyphenyl)((6aR,10aR)-1-hydroxy-6,6,9-trimethyl-6a,7,10,10a-tetrahydro-6H-benzo[c]chromen-2-yl)methanone], the CC50 in the data set “in vitro [2]” (Vero cells (kidney)) was 13.2 µM; in the data set “in vitro [3]” (setting [6]), 59.2 µM. Further, in the data set on SARS-CoV-2 [4], the “Anti-SARS-CoV-2 Activity, % Inhibition at 10 µM” value was determined as 99.3%. In the data set with SARS-CoV-2 [4], the EC50 is 4.3 µM. Also, the concentration for half-maximal inhibition (IC50) in data set [5] came out at 2.8 ± 0.5 µM.
The like results for `CC1=CC[C@@H]2[C@@H](C1)c1cc(C(=O)c3ccc(O)cc3O)c(O)cc1OC2(C)C` [TPM-2, (2,4-dihydroxyphenyl)((6aR,10aR)-3-hydroxy-6,6,9-trimethyl-6a,7,10,10a-tetrahydro-6H-benzo[c]chromen-2-yl)methanone] were, in that order, 45.2 µM, 34.9 µM, 98.9%, 7.8 µM and 6.4 ± 1.5 µM.
Turning to `CCC(CC)COC(=O)[C@H](C)N[P@](=O)(OC[C@H]1O[C@@](C#N)(c2ccc3c(N)ncnn23)[C@H](O)[C@@H]1O)Oc1ccccc1` [Remdesivir, reference compound], the CC50 in the data set “in vitro [2]” (Vero cells (kidney)) is above 100 µM. Moreover, the CC50 in the data set “in vitro [3]” (setting [6]) came out at 2 µM. Further, in the data set on SARS-CoV-2 [4], the “Anti-SARS-CoV-2 Activity, % Inhibition at 10 µM” value is recorded as 99.9% and the EC50 turned out to be 2.3 µM.
